Reference: patent US20260022142A1, “MACROCYCLIC IMMUNOMODULATORS” (Bristol-Myers Squibb Company, priority 2022, published 2026)
Numbered stars: 1 amine (or outer) side, 2 acyl side, 3 side chain; on linkers, the order of the positions; unused ones are H or OH. Bridge positions count the residues as written; N and C are the ends. Square brackets hold non-standard residues; d marks the D form. Peptide text beside a SMILES is read from it. * marks the point of attachment. ξ: configuration not given here. Phe(3-CF3) = N[C@@H](Cc1cccc(C(F)(F)F)c1)C(=O)O; Bip = N[C@@H](Cc1ccc(-c2ccccc2)cc1)C(=O)O; Phe(3-Me) = Cc1cccc(C[C@H](N)C(=O)O)c1; NH(CH2)12COOH = O=C(O)CCCCCCCCCCCCN*; Val(3-OH) = CC(C)(O)[C@H](N)C(=O)O; X15 = C[C@H](N)C(N[*:1])C(=O)[*:2]; Cha = N[C@@H](CC1CCCCC1)C(=O)O; Cit = NC(=O)NCCC[C@H](N)C(=O)O; Thr(3ξ) = CC(O)[C@H](N)C(=O)O; X20 = CN(CCCCCCCCCCC(=O)O)*; hCys = N[C@@H](CCS)C(=O)O; Carboxymethyl = O=C(O)C*; Orn = NCCC[C@H](N)C(=O)O; Aun = NCCCCCCCCCCC(=O)O; Dab = NCC[C@H](N)C(=O)O; Abu = CC[C@H](N)C(=O)O; Dap = NC[C@H](N)C(=O)O; AEEA = NCCOCCOCC(=O)O; ξC = NC(CS)C(=O)O

The compounds below were run against T1, PD-1/PD-L1 interaction (PE-labeled human PD-L1-Ig binding to Jurkat cell line over-expressing human PD-1) (Homo sapiens, UniProt Q15116) (assay: Jurkat-PD-1 Cell Binding High-Content Screening Assay (CBA)). Settings: Jurkat cell line over-expressing human PD-1; PE-labeled PD-L1-Ig 20 nM final; read-out: Jurkat hPD1-PDL1 IC50.
T1 construct: expressed in transfected cells; host or cells: Jurkat
Assay type: cell-based
Procedure, shortened: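 Binding of fluorescent PD-L1-Ig (20 nM final) to Jurkat-PD-1 cells was measured by automated imaging after 1 h, following a 2 h compound pre-treatment at 37° C.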

T1 sequence (Q15116 25-288): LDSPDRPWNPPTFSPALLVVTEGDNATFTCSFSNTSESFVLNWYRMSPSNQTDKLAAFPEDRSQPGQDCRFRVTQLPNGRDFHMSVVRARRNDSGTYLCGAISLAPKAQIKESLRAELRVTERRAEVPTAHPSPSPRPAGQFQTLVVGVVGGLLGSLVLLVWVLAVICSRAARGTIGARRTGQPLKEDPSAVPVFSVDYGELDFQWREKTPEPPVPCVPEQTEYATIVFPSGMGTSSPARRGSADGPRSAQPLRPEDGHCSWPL

IC50 | SMILES
136 nM | Cc1cccc(C[C@@H]2NC(=O)[C@H](CC(=O)O)NC(=O)[C@H](Cc3ccc(OCC(=O)O)cc3)NC(=O)[C@H](Cc3ccc(OCC(=O)O)cc3)NC(=O)CSC[C@@H](C(=O)NCCOCCOCC(=O)N(C)CCCCCCCCCCC(=O)O)NC(=O)[C@H](C(C)O)NC(=O)[C@H](C(C)C)NC(=O)[C@H](CC3CCCCC3)NC(=O)[C@H](CCN)NC(=O)[C@@H](CC(C)C)NC(=O)[C@H](CCCN)NC(=O)[C@H](CCCNC(N)=O)NC(=O)[C@H](Cc3ccc(-c4ccccc4)cc3)NC(=O)[C@H](C(C)C)NC2=O)c1 (stereo partly drawn) [Compound 3509] ({CH2CO}-Y(Carboxymethyl)Y(Carboxymethyl)D[Phe(3-Me)]V[Bip][Cit][Orn][dL][Dab][Cha]V[Thr(3ξ)]C[AEEA]-X20; thioether N-14)
11.1 nM | Cc1cccc(C[C@@H]2NC(=O)[C@H](CC(=O)O)NC(=O)[C@H](Cc3ccc(OCC(=O)O)cc3)NC(=O)C([C@H](C)N)NC(=O)CSC[C@@H](C(=O)N[C@@H](CCN)C(=O)NCCCCCCCCCCCCC(=O)O)NC(=O)[C@H](CO)NC(=O)[C@H](C(C)(C)O)NC(=O)[C@H](CC3CCCCC3)NC(=O)[C@H](CCN)NC(=O)[C@@H](CC(C)C)NC(=O)[C@H](CCCN)NC(=O)[C@H](Cc3ccc(OCC(=O)O)cc3)NC(=O)[C@H](Cc3ccc(-c4ccccc4)cc3)NC(=O)[C@H](Cc3ccc(OCC(=O)O)cc3)NC2=O)c1 (stereo partly drawn) [Compound 2257] ({CH2CO}-[X15]Y(Carboxymethyl)D[Phe(3-Me)]Y(Carboxymethyl)[Bip]Y(Carboxymethyl)[Orn][dL][Dab][Cha][Val(3-OH)]SC[Dab]-{NH(CH2)12COOH}; thioether N-14)
7.9 nM | Cc1cccc(C[C@@H]2NC(=O)[C@H](CC(=O)O)NC(=O)[C@H](Cc3ccc(OCC(=O)O)cc3)NC(=O)[C@H](CN)NC(=O)CSC[C@@H](C(=O)N[C@@H](C)C(=O)NCCOCCOCC(=O)N[C@@H](CCC(=O)O)C(=O)NCCCCCCCCCCC(=O)O)NC(=O)[C@H]([C@@H](C)O)NC(=O)[C@H](C(C)C)NC(=O)[C@H](CC3CCCCC3)NC(=O)[C@H](CCN)NC(=O)[C@@H](CC(C)C)NC(=O)[C@H](CCCN)NC(=O)[C@H](CCCNC(N)=O)NC(=O)[C@H](Cc3ccc(-c4ccccc4)cc3)NC(=O)[C@H](C(C)C)NC2=O)c1 [Compound 1007] ({CH2CO}-[Dap]Y(Carboxymethyl)D[Phe(3-Me)]V[Bip][Cit][Orn][dL][Dab][Cha]VTCA[AEEA]E[Aun]-OH; thioether N-14)
16.1 nM | CC(C)C[C@H]1NC(=O)[C@H](CCCN)NC(=O)[C@H](C(C)C)NC(=O)[C@H](Cc2ccc(-c3ccccc3)cc2)NC(=O)[C@H](C(C)C)NC(=O)[C@H](Cc2c[nH]c3ccccc23)NC(=O)[C@H](CC(=O)O)NC(=O)[C@H](Cc2ccc(OCC(=O)O)cc2)NC(=O)[C@H](Cc2c[nH]cn2)NC(=O)CSC[C@@H](C(=O)N[C@H](C)C(=O)N[C@@H](CCC(=O)O)C(=O)NCCCCCCCCCCC(=O)O)NC(=O)[C@H]([C@@H](C)O)NC(=O)[C@H](C(C)C)NC(=O)[C@H](CC2CCCCC2)NC(=O)[C@H](CCN)NC1=O [Compound 2785] ({CH2CO}-HY(Carboxymethyl)DWV[Bip]V[Orn][dL][Dab][Cha]VTC[dA]E[Aun]-OH; thioether N-14)
70.5 nM | CC(C)C[C@@H]1NC(=O)CSC[C@@H](C(=O)N[C@@H](CCN)C(=O)NCCCCCCCCCCCCC(=O)O)NC(=O)[C@H](Cc2cnc[nH]2)NC(=O)[C@H](C(C)(C)O)NC(=O)[C@H](CC2CCCCC2)NC(=O)[C@H](CCN)NC(=O)[C@@H](CC(C)C)NC(=O)[C@H](CCCN)NC(=O)[C@H](Cc2ccc(OCC(=O)O)cc2)NC(=O)[C@H](Cc2ccc(-c3ccccc3)cc2)NC(=O)[C@H](Cc2ccc(OCC(=O)O)cc2)NC(=O)[C@H](Cc2cccc(C(F)(F)F)c2)NC(=O)[C@H](CC(=O)O)NC(=O)[C@H](Cc2ccc(OCC(=O)O)cc2)NC1=O [Compound 3873] ({CH2CO}-LY(Carboxymethyl)D[Phe(3-CF3)]Y(Carboxymethyl)[Bip]Y(Carboxymethyl)[Orn][dL][Dab][Cha][Val(3-OH)]HC[Dab]-{NH(CH2)12COOH}; thioether N-14)
10.1 nM | CC(C)C[C@H]1NC(=O)[C@H](CCCN)NC(=O)[C@H](C(C)C)NC(=O)[C@H](Cc2ccc(-c3ccccc3)cc2)NC(=O)[C@H](C(C)C)NC(=O)[C@H](Cc2c[nH]c3ccccc23)NC(=O)[C@H](CC(=O)O)NC(=O)[C@H](Cc2ccc(OCC(=O)O)cc2)NC(=O)[C@H](C(C)O)NC(=O)CSC[C@@H](C(=O)NCCOCCOCC(=O)N[C@@H](CCCCN)C(=O)NCCCCCCCCCCC(=O)O)NC(=O)[C@H](C(C)O)NC(=O)[C@H](C(C)C)NC(=O)[C@H](CC2CCCCC2)NC(=O)[C@H](CCN)NC1=O (stereo partly drawn) [Compound 3052] ({CH2CO}-[Thr(3ξ)]Y(Carboxymethyl)DWV[Bip]V[Orn][dL][Dab][Cha]V[Thr(3ξ)]C[AEEA]K[Aun]-OH; thioether N-14)
13.2 nM | CC[C@H](C)[C@@H]1NC(=O)[C@H](Cc2ccc(-c3ccccc3)cc2)NC(=O)[C@H](C(C)C)NC(=O)[C@H](Cc2cccc(C)c2)NC(=O)[C@H](CC(=O)O)NC(=O)[C@H](Cc2ccc(OCC(=O)O)cc2)NC(=O)[C@H](CN)NC(=O)CSCC(C(=O)NCCOCCOCC(=O)NCCCCCCCCCCC(=O)O)NC(=O)[C@H](CN)NC(=O)[C@H](C(C)C)NC(=O)[C@H](CC2CCCCC2)NC(=O)[C@H](CCN)NC(=O)[C@@H](CC(C)C)NC(=O)[C@H](CCCN)NC1=O (stereo partly drawn) [Compound 2646] ({CH2CO}-[Dap]Y(Carboxymethyl)D[Phe(3-Me)]V[Bip]I[Orn][dL][Dab][Cha]V[Dap][ξC][AEEA][Aun]-OH; thioether N-14)
173 nM | Cc1cccc(C[C@@H]2NC(=O)[C@H](CC(=O)O)NC(=O)[C@H](Cc3ccccc3)NC(=O)[C@H](CC(N)=O)NC(=O)CSCC[C@@H](C(=O)N[C@@H](CCCN)C(=O)NCCCCCCCCCCC(=O)O)NC(=O)[C@H](CCC(=O)O)NC(=O)[C@H](C(C)C)NC(=O)[C@H](CC(C)C)NC(=O)[C@H](CCN)NC(=O)[C@@H](CC(C)C)NC(=O)[C@H](CCCN)NC(=O)[C@H](CCCNC(N)=O)NC(=O)[C@H](Cc3ccc(-c4ccccc4)cc3)NC(=O)[C@H](C(C)C)NC2=O)c1 [Compound 2775] ({CH2CO}-NFD[Phe(3-Me)]V[Bip][Cit][Orn][dL][Dab]LVE[hCys][Orn][Aun]-OH; thioether N-14)
3.8 nM | CC[C@@H]1NC(=O)CSC[C@@H](C(=O)N[C@@H](CCN)C(=O)NCCCCCCCCCCC(=O)O)NC(=O)[C@H](CCC(=O)O)NC(=O)[C@H](C(C)(C)O)NC(=O)[C@H](CC2CCCCC2)NC(=O)[C@H](CCN)NC(=O)[C@@H](CC(C)C)NC(=O)[C@H](CCCN)NC(=O)[C@H](Cc2ccc(OCC(=O)O)cc2)NC(=O)[C@H](Cc2ccc(-c3ccccc3)cc2)NC(=O)[C@H](Cc2ccc(OCC(=O)O)cc2)NC(=O)[C@H](Cc2cccc(C)c2)NC(=O)[C@H](CC(=O)O)NC(=O)[C@H](Cc2ccc(OCC(=O)O)cc2)NC1=O [Compound 3794] ({CH2CO}-[Abu]Y(Carboxymethyl)D[Phe(3-Me)]Y(Carboxymethyl)[Bip]Y(Carboxymethyl)[Orn][dL][Dab][Cha][Val(3-OH)]EC[Dab][Aun]-OH; thioether N-14)
